Data set [1] in a line: Acute toxicity in ddY strain mice, up and down method, oral. Particulars: mouse, in vivo, suspended in 1% methyl cellulose, given orally, observation 24 hours, read-out: LD50 (per os). The protocol:
Acute toxicity of the compounds of the present invention in ddY strain mice was determined by the up and down method, with observation for 24 hours. The compounds in this experiment were suspended in 1% methyl cellulose and given orally.

The subject of the next data set is gastric epithelial cell. Nature of the data set: Gastric epithelial cell stabilizing effect in pylorus-ligated rats (NANA in gastric juice). It is filed as in vivo, rat. To be noted: male Donryu rats, oral three times a day for five days, 8 hours after pylorus ligation; for NANA content in gastric juice, free: control 22.5, * P < 0.05 vs control (V, VI and VII all marked *); for NANA content in gastric juice, bound: control 93.3; for NANA content in gastric juice, bound / NANA content in gastric juice, total: * P < 0.05 vs control (only V marked *); for NANA content in gastric juice, total: control 115.8. As for the experimental part: The investigation of the gastric epithelial cell stabilizing effects of these compounds were examined in rats. Male Donryu strain rats, weighing about 200 g, were given the test compound orally three times a day for five days. On the fifth day the animals were fasted for 24 hours, and submitted to pylorus ligation under light ether anesthesia. The test compounds were given just after pylorus ligation orally. After 8 hours of ligation, the rats were sacrificed and the volume of gastric juice was measured. After centrifuging 6 ml of this gastric juice at 5000 r.p.m., 2 ml of the resulting supernatant was submitted to N-acetyl neuraminic acid (NANA) determination according to the method of D. Aminoff (D. Aminoff et al., Biochem. J. […], 384-392 (1961)).

For data set [2], the system named is carragenin-induced rat paw edema. The data set is described as follows: Carragenin-induced rat paw edema (anti-inflammatory effect). It is filed as in vivo. To be noted: 300 mg/kg oral, Wister rat, maximum percentage inhibition during 4 hours after administration. As for the experimental part:
The anti-inflammatory effect of these compounds on carragenin-induced rat paw edema was examined in accordance with the method of C. A. Winter (J. Pharmacol. 141, 369, […]. The compounds of the present invention were suspended in 1% methyl-cellulose and orally administered at a dose of 300 mg/kg to Wister rat, weighing about 140 g. The maximum percentage inhibition during 4 hours after administration was calculated as follows: [formula] The results are shown in Table 3.

A further data set relates to stress ulcer. Nature of the data set: Stress ulcer in rats (anti-ulcerative action). To be noted: 100 mg/kg per os, male Wister rats, 30 minutes before the stress; stressing 18 hours; control 4.6 ± 0.70. It is filed as in vivo, rat. As for the experimental part:
To study the anti-ulcerative actions of these compounds of the present invention further, the stress ulcer was selected. Male Wister rats, weighing 200-250 g were subjected to stress according to Takagi et al. (Chem. Pharm. Bull 12, 465, 1964). These compounds were suspended in 1% methyl cellulose and were administered to the rat at a dose of 100 mg/kg body weight per os, 30 minutes before the stress. After stressing for 18 hours, the animals were killed by a blow on the head. The removed stomach was filled with 1% formalin solution, placed in 1% formalin solution for 15 minutes and was then cut open along the greater curvature and examined for lesion to obtain the ulcer index. The ulcer index was determined in six grades (0-5; 5 implying perforation of stomach).

As for `CC(C)=CCCC(C)=CCCC(C)=CCOC(=O)CC=C(C)CCC=C(C)CCC=C(C)C` [Compound V, Farnesyl farnesyl carboxylate], the 50% lethal dose (LD50) at 24 h in data set [1] came out at 24500 mg/kg. In addition, in the data set with gastric epithelial cell, the “NANA content in gastric juice, free” value was determined as 17.6 µg/mL; the “NANA content in gastric juice, bound” value is 74.5 µg/mL; the “NANA content in gastric juice, total” value turned out to be 92.1 µg/mL. The same compound came in with a Maximum inhibition in data set [2] of 35.8%. In addition, in the data set with stress ulcer, the “Score (ulcer index, six grades 0-5; 5 implying perforation of stomach)” value was determined as 1.8 ± 0.50.

Take `CC(C)=CCCC(C)=CCCC(C)=CCNC(=O)CC=C(C)CCC=C(C)CCC=C(C)C` [Compound VI, N-Farnesyl farnesyl carboxamide]: the 50% lethal dose (LD50) at 24 h in data set [1] is 18700 mg/kg. Further, in the data set with gastric epithelial cell, the “NANA content in gastric juice, free” value turned out to be 18.3 µg/mL; the “NANA content in gastric juice, bound” value was 87.4 µg/mL; the “NANA content in gastric juice, total” value was 105.7 µg/mL. Moreover, the Maximum inhibition in data set [2] was found to be 30.1%. In the data set on stress ulcer, the “Score (ulcer index, six grades 0-5; 5 implying perforation of stomach)” value is on record as 2.3 ± 0.72.

For the compound `CC(C)=CCCC(C)=CCCC(C)=CCNC(=O)OCC=C(C)CCC=C(C)CCC=C(C)C` [Compound VII, N-Farnesyl farnesyl carbamate], the LD50 at 24 h in data set [1] amounted to 20200 mg/kg. Besides, in the data set on gastric epithelial cell, the “NANA content in gastric juice, free” value was 16.7 µg/mL; the “NANA content in gastric juice, bound” value is 81.3 µg/mL; the “NANA content in gastric juice, total” value was 98.3 µg/mL. Also, in data set [2], the Maximum inhibition is recorded as 23.7%. Further, the “Score (ulcer index, six grades 0-5; 5 implying perforation of stomach)” value in the data set with stress ulcer is 2.1 ± 0.41.

(Values after patent US4520029A, “Farnesene derivatives, mucosal stabilizing compositions and method of manufacturing the same” (Kotobuki Seiyaku Co., Ltd., priority 1980, dated 1985).)
